The values that follow come from ChEMBL document CHEMBL3875222, “Benzenesulfonamide bearing imidazothiadiazole and thiazolotriazole scaffolds as potent tumor associated human carbonic anhydrase IX and XII inhibitors” (Bioorg Med Chem, 2017).

In one assay the target is Carbonic anhydrase 1 (Homo sapiens, UniProt P00915). Nature of the assay: Inhibition of recombinant human erythrocyte cytosolic carbonic anhydrase 1 by stopped-flow CO2 hydration assay.
The target in another assay is Carbonic anhydrase 2 (Homo sapiens, UniProt P00918). In words: Inhibition of recombinant human erythrocyte cytosolic carbonic anhydrase 2 by stopped-flow CO2 hydration assay.
The target of another assay is Carbonic anhydrase 9 (Homo sapiens, UniProt Q16790). In words: Inhibition of recombinant human membrane bound carbonic anhydrase 9 by stopped-flow CO2 hydration assay.
A further assay addresses Carbonic anhydrase 12 (Homo sapiens, UniProt O43570). Nature of the assay: Inhibition of recombinant human membrane bound carbonic anhydrase 12 by stopped-flow CO2 hydration assay.

Chain of Carbonic anhydrase 1 (P00915 whole entry): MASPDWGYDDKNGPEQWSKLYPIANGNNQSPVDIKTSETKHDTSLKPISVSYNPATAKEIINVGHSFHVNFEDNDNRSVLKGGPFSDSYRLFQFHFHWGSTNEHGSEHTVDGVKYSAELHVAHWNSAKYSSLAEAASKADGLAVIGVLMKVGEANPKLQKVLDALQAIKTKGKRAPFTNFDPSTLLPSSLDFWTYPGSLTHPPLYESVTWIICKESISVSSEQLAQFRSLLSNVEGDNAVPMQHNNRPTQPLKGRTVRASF
Chain of Carbonic anhydrase 12 (O43570 whole entry): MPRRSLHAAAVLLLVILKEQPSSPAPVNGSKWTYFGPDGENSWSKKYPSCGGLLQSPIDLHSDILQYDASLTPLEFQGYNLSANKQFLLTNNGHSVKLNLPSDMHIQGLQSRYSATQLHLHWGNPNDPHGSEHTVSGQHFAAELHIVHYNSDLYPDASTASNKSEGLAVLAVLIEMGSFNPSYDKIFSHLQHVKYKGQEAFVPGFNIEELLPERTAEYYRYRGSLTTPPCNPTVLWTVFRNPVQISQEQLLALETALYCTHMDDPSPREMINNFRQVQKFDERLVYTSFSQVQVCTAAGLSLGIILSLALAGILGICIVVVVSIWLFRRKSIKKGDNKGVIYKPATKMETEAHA

With `NS(=O)(=O)c1ccc(-c2nc3scc(-c4ccc(-c5ccccc5)cc4)n3n2)cc1`, the Ki is 97.5 nM at Carbonic anhydrase 1, 22.3 nM on Carbonic anhydrase 2, 133 nM on Carbonic anhydrase 9 and 297 nM at Carbonic anhydrase 12.

Consider `NS(=O)(=O)c1ccc(-c2nc3scc(-c4cccc(Br)c4)n3n2)cc1`, for which the inhibition constant Ki at Carbonic anhydrase 1 came to 9510 nM; at Carbonic anhydrase 2 it was 2570 nM; on Carbonic anhydrase 9, 1090 nM; at Carbonic anhydrase 12, 41.4 nM.

As for `Cc1ccc(-c2csc3nc(-c4ccc(S(N)(=O)=O)cc4)nn23)cc1`, the Ki on Carbonic anhydrase 1 was 79.8 nM; on Carbonic anhydrase 2 it was 19.5 nM; at Carbonic anhydrase 9 it was 85.1 nM; at Carbonic anhydrase 12 it was 23.8 nM.

With `NS(=O)(=O)c1ccc(-c2nn3cc(-c4ccc(Cl)cc4)nc3s2)cc1`, the Ki amounted to 500 nM at Carbonic anhydrase 1, 244 nM at Carbonic anhydrase 2, 1210 nM on Carbonic anhydrase 9 and 80.1 nM at Carbonic anhydrase 12.

As to `NS(=O)(=O)c1ccc(-c2nc3scc(-c4ccc([N+](=O)[O-])cc4)n3n2)cc1`, the Ki is 9330 nM at Carbonic anhydrase 1, 3860 nM on Carbonic anhydrase 2, 189 nM at Carbonic anhydrase 9 and 35.1 nM at Carbonic anhydrase 12.

Turning to `NS(=O)(=O)c1ccc(-c2nn3cc(-c4cccc([N+](=O)[O-])c4)nc3s2)cc1`, the Ki on Carbonic anhydrase 1 was determined as 510 nM; at Carbonic anhydrase 2, 274 nM; on Carbonic anhydrase 9, 172 nM; at Carbonic anhydrase 12, 50.4 nM.

`NS(=O)(=O)c1ccc(-c2nc3scc(-c4ccc(F)cc4)n3n2)cc1`: the Ki at Carbonic anhydrase 1 is 662 nM; at Carbonic anhydrase 2 it was 301 nM; at Carbonic anhydrase 9 it was 237 nM; at Carbonic anhydrase 12, 359 nM.

Take `COc1ccc(-c2cn3nc(-c4ccc(S(N)(=O)=O)cc4)sc3n2)cc1`: the Ki was 849 nM on Carbonic anhydrase 1, 830 nM on Carbonic anhydrase 2, 2830 nM on Carbonic anhydrase 9 and 3.8 nM at Carbonic anhydrase 12.

With `NS(=O)(=O)c1ccc(-c2nn3cc(-c4ccc(F)cc4)nc3s2)cc1`, the Ki at Carbonic anhydrase 1 worked out at 218 nM; at Carbonic anhydrase 2, 56.2 nM; at Carbonic anhydrase 9, 136 nM; at Carbonic anhydrase 12, 79.4 nM.

Consider `Cc1ccc(-c2cn3nc(-c4ccc(S(N)(=O)=O)cc4)sc3n2)cc1`, for which the Ki at Carbonic anhydrase 1 was 243 nM; on Carbonic anhydrase 2 it was 240 nM; at Carbonic anhydrase 9, 275 nM; on Carbonic anhydrase 12 it was 3.3 nM.

Take `NS(=O)(=O)c1ccc(-c2nc3scc(-c4cccc([N+](=O)[O-])c4)n3n2)cc1`: the Ki on Carbonic anhydrase 1 came to 64.3 nM; at Carbonic anhydrase 2, 13.2 nM; at Carbonic anhydrase 9, 203 nM; at Carbonic anhydrase 12, 362 nM.

Take `NS(=O)(=O)c1ccc(-c2nn3cc(-c4cccc(Br)c4)nc3s2)cc1`: the Ki at Carbonic anhydrase 1 came out at 276 nM; on Carbonic anhydrase 2 it was 67.6 nM; on Carbonic anhydrase 9, 251 nM; on Carbonic anhydrase 12, 75.6 nM.

`COc1ccc(-c2csc3nc(-c4ccc(S(N)(=O)=O)cc4)nn23)cc1`: the Ki stood at 83.3 nM on Carbonic anhydrase 1, 15.1 nM at Carbonic anhydrase 2, 147 nM on Carbonic anhydrase 9 and 22.3 nM on Carbonic anhydrase 12.

As to `NS(=O)(=O)c1ccc(-c2nn3cc(-c4ccc([N+](=O)[O-])cc4)nc3s2)cc1`, the inhibition constant Ki at Carbonic anhydrase 1 came to 287 nM; on Carbonic anhydrase 2 it was 369 nM; on Carbonic anhydrase 9 it was 306 nM; at Carbonic anhydrase 12, 48.1 nM.

Turning to `NS(=O)(=O)c1ccc(-c2nn3cc(-c4ccc(-c5ccccc5)cc4)nc3s2)cc1`, the Ki on Carbonic anhydrase 1 is 35.5 nM; at Carbonic anhydrase 2, 368 nM; at Carbonic anhydrase 9 it was 143 nM; on Carbonic anhydrase 12, 62.1 nM.

On to `NS(=O)(=O)c1ccc(-c2nc3scc(-c4ccc(Cl)cc4)n3n2)cc1`, for which the Ki on Carbonic anhydrase 1 was found to be 943 nM; at Carbonic anhydrase 2, 529 nM; on Carbonic anhydrase 9, 1680 nM; at Carbonic anhydrase 12, 26.7 nM.

As to `NS(=O)(=O)c1ccc(-c2nc3scc(-c4ccc(Br)cc4)n3n2)cc1`, the Ki at Carbonic anhydrase 1 was 9700 nM; on Carbonic anhydrase 2, 6350 nM; at Carbonic anhydrase 9, 172 nM; on Carbonic anhydrase 12, 302 nM.

Regarding `NS(=O)(=O)c1ccc(-c2nn3cc(-c4ccccc4)nc3s2)cc1`, the Ki came out at 318 nM on Carbonic anhydrase 1, 7.3 nM on Carbonic anhydrase 2, 208 nM on Carbonic anhydrase 9 and 4.1 nM on Carbonic anhydrase 12.

For the compound `NS(=O)(=O)c1ccc(-c2nn3cc(-c4ccc(Br)cc4)nc3s2)cc1`, the Ki at Carbonic anhydrase 1 was 624 nM; at Carbonic anhydrase 2, 681 nM; on Carbonic anhydrase 9, 918 nM; on Carbonic anhydrase 12 it was 84.8 nM.

In the case of `NS(=O)(=O)c1ccc(-c2nc3scc(-c4ccccc4)n3n2)cc1`, the Ki came out at 17.9 nM at Carbonic anhydrase 1, 18.1 nM at Carbonic anhydrase 2, 262 nM at Carbonic anhydrase 9 and 147 nM at Carbonic anhydrase 12.
